Patent US11981661B2, “Heterocyclic compounds” (Hoffmann-La Roche Inc., priority 2020, dated 2024)

The molecules below were run against T1, MAGL (Homo sapiens, UniProt Q99685) (assay: 2-AG assay (MAGL inhibitory activity, hydrolysis of 2-arachidonoylglycerol followed by mass spectrometry)). Details: 50 pM MAGL, 8 μM 2-arachidonoylglycerol, 15 min preincubation, 30 min incubation at RT, concentration range 12.5 μM to 0.8 pM.
T1 sequence (Q99685 1-303): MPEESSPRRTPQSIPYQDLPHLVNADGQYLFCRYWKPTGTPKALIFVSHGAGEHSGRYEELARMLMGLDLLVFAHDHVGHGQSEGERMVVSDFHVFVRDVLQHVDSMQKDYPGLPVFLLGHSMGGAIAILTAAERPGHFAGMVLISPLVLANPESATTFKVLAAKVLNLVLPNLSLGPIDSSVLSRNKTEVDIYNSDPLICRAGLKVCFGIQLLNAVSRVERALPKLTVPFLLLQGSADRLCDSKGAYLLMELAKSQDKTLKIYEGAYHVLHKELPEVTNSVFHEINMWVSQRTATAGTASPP
Assay type: biochemical
How it was run: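 50 pM MAGL preincubated 15 min at RT with compound (12.5 μM to 0.8 pM) in 50 mM TRIS, 1 mM EDTA, 0.01% Tween, then 8 μM 2-arachidonoylglycerol for 30 min at RT. Arachidonic acid measured by RapidFire SPE–triple quadrupole MS in negative mode, normalised to d8-arachidonic acid.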
For `O=C1N[C@H](CCC(=O)N2CC(NCc3ccc(C(F)(F)F)cc3)C2)CO1` [Example 155, (4R)-4-[3-Oxo-3-[3-[[4-(trifluoromethyl)phenyl]methyl-amino]azetidin-1-yl]propyl] oxazolidin-2-one], the IC50 was 284 nM.
`O=C1N[C@H](CCC(=O)N2CC(c3ccc(N4CC5(CCCC5)C4)nc3)C2)CO1` [Example 142, (4R)-4-[3-[3-[6-(2-Azaspiro[3.4]octan-2-yl)-3-pyridyl]azetidin-1-yl]-3-oxo-propyl]oxazolidin-2-one] was tested, and the IC50 was 13 nM.
With `O=C1N[C@H](CCC(=O)N2CC3(CCN(Cc4cccc(S(=O)(=O)C(F)(F)F)c4)CC3)C2)CO1` [Example 195, (4R)-4-[3-Oxo-3-[7-[[3-(trifluoro-methylsulfonyl)phenyl]methyl]-2,7-diazaspiro [3.5]nonan-2-yl]propyl] oxazolidin-2-one] the IC50 was 28 nM.
`O=C1CSC[C@H](CCC(=O)N2CC(OCc3ccc(C(F)(F)F)cc3F)C2)N1` [Example 88, (5S)-5-[3-[3-[[2-Fluoro-4-(trifluoromethyl)phenyl]methoxy]azetidin-1-yl]-3-oxo-propyl]thiomorpholin-3-one] gave an IC50 of 1300 nM.
In the case of `O=C1N[C@H](CCC(=O)N2CCC(CNS(=O)(=O)c3ccc(OC(F)(F)F)cc3)CC2)CO1` [Example 159, N-[[1-[3-[(4R)-2-Oxooxazolidin-4-yl]propanoyl]-4-piperidyl]methyl]-4-(trifluoro-methoxy)benzene-sulfonamide], the IC50 is reported as 434 nM.
In the case of `CS(=O)(=O)c1ccc(CN2CCC3(CC2)CN(C(=O)CC[C@@H]2COC(=O)N2)C3)cc1` [Example 192, (4R)-4-[3-[7-[(4-Methyl-sulfonylphenyl)methyl]-2,7-diazaspiro[3.5]nonan-2-yl]-3-oxo-propyl] oxazolidin-2-one], the IC50 is reported as 1220 nM.
`O=C1N[C@H](CCC(=O)N2CC3(CCC(Cc4ccc(OC(F)F)nc4)CC3)C2)CO1` [Example 191, (4R)-4-[3-[7-[[6-(Difluoro-methoxy)-3-pyridyl]methyl]-2-azaspiro[3.5]nonan-2-yl]-3-oxo-propyl] oxazolidin-2-one] gave an IC50 of 37 nM.
In the case of `O=C1N[C@H](COC(=O)N2CC(C#Cc3ccccc3C(F)F)C2)CO1` [Example 61, [(4S)-2-Oxooxazolidin-4-yl]methyl 3-[2-[2-(difluoromethyl)phenyl]ethynyl] azetidine-1-carboxylate], the IC50 is reported as 13 nM.
Work on `CC(C)(C)CS(=O)(=O)N1CC2(CN(C(=O)CC[C@@H]3COC(=O)N3)C2)C1` [Example 98, (4R)-4-[3-[2-(2,2-Dimethylpropyl-sulfonyl)-2,6-diazaspiro[3.3]heptan-6-yl]-3-oxo-propyl]oxazolidin-2-one] yielded an IC50 of 3370 nM.
`CC1(CCC(=O)N2CC(OCc3ccc(C(F)(F)F)cc3F)C2)CCC(=O)N1` (stereo not drawn) [Example 14, (+)- or (−)-5-[3-[3-[[2-Fluoro-4-(trifluoromethyl)phenyl]methoxy]azetidin-1-yl]-3-oxo-propyl]-5-methyl-pyrrolidin-2-one] was tested, and the IC50 was 2110 nM.
For `O=C1N[C@H](CCC(=O)N2CC(c3ccc(N4CC5(CCCC5)C4)cc3)C2)CO1` [Example 131], the IC50 was 1 nM.
With `O=C1N[C@H](CCC(=O)N2CC(c3ccc(N4CC(O)(C(F)(F)F)C4)nc3)C2)CO1` [Example 144, (4R)-4-[3-[3-[6-[3-Hydroxy-3-(trifluoro-methyl)azetidin-1-yl]-3-pyridyl]azetidin-1-yl]-3-oxo-propyl]oxazolidin-2-one] the IC50 was 172 nM.
`O=C1CCC(CCC(=O)N2C[C@@H]3CN(Cc4ccc(C(F)(F)F)cc4F)C[C@H]3C2)N1` (single isomer, unassigned; (+)) [Example 12] was tested, and the IC50 was 2310 nM.
Work on `O=C1N[C@H](CCC(=O)N2CC(c3cnc(C4(C(F)(F)F)CC4)nc3)C2)CO1` [Example 101, (4R)-4-[3-Oxo-3-(3-[2-[1-(trifluoro-methyl)cyclopropyl]pyrimidin-5-yl]azetidin-1-yl]propyl]oxazolidin-2-one] yielded an IC50 of 481 nM.
Molecule `O=C1N[C@H](CCC(=O)N2CC(c3noc(C45CC(C(F)(F)F)(C4)C5)n3)C2)CO1` [Example 169, (4R)-4-[3-Oxo-3-[3-[5-[3-(trifluoromethyl)-1-bicyclo[1.1.1]pentanyl]-1,2,4-oxadiazol-3-yl]azetidin-1-yl]propyl] oxazolidin-2-one] has an IC50 of 854 nM.
With `O=C1N[C@H](CCC(=O)N2CC(c3ccc(N4CCC(O)(C(F)(F)F)C4)nc3)C2)CO1` (single isomer, unassigned) [Example 204, (−)- or (+)-(4R)-4-[3-[3-[6-[3-Hydroxy-3-(trifluoromethyl)pyrrolidin-1-yl]-3-pyridyl]azetidin-1-yl]-3-oxo-propyl]oxazolidin-2-one] the IC50 was 98 nM.
For `O=C1N[C@H](CCC(=O)N2CC3(CCC(NS(=O)(=O)c4cccc(OC(F)(F)F)c4)CC3)C2)CO1` [Example 138, N-[2-[3-[(4R)-2-Oxooxazolidin-4-yl]propanoyl]-2-azaspiro[3.5]nonan-7-yl]-3-(trifluoro-methoxy)benzene-sulfonamide], the IC50 was 62 nM.
Molecule `O=C1N[C@H](CCC(=O)N2CC3(CC(Cc4cccc(S(=O)(=O)C(F)(F)F)c4)C3)C2)CO1` [Example 186, (4R)-4-[3-Oxo-3-[6-[[3-(trifluoro-methylsulfonyl)phenyl]methyl]-2-azaspiro[3.3]heptan-2-yl]propyl] oxazolidin-2-one] has an IC50 of 2 nM.
With `O=C1N[C@H](CCC(=O)N2CC(c3ccc(N4CC5(C4)CC(F)(F)C5)cc3)C2)CO1` [Example 132, (4R)-4-[3-[3-[4-(6,6-Difluoro-2-azaspiro[3.3]heptan-2-yl)phenyl]azetidin-1-yl]-3-oxo-propyl]oxazolidin-2-one] the IC50 was 9 nM.
Work on `O=C(CCCc1cnn[nH]1)N1CC(c2ccc(C3(C(F)(F)F)CC3)cc2)C1` [Example 40, 4-(1H-Triazol-5-yl)-1-[3-[4-[1-(trifluoro-methyl)cyclopropyl]phenyl]azetidin-1-yl]butan-1-one] yielded an IC50 of 21 nM.
`O=C1N[C@H](CCC(=O)N2CC(c3ccc(N4CCC5(C4)CC5(F)F)nc3)C2)CO1` (stereo partly drawn) [Example 173, (4R)-4-[3-[3-[6-(2,2-Difluoro-5-azaspiro[2.4]heptan-5-yl)-3-pyridyl]azetidin-1-yl]-3-oxo-propyl]oxazolidin-2-one] showed an IC50 of 45 nM.
Work on `O=C1N[C@H](CCC(=O)N2CC3(CC(Cc4cnc(C(F)(F)F)nc4)C3)C2)CO1` [Example 182, (4R)-4-[3-Oxo-3-[6-[[2-(trifluoro-methyl)pyrimidin-5-yl]methyl]-2-azaspiro[3.3]heptan-2-yl]propyl] oxazolidin-2-one] yielded an IC50 of 246 nM.
In the case of `O=C1N[C@H](CCC(=O)N2CC(c3cnc(N4CCC(C(F)(F)F)C4)nc3)C2)CO1` (single isomer, unassigned) [Example 208, (−)- or (+)-(4R)-4-[3-Oxo-3-[3-[2-[3-(trifluoromethyl)pyrrolidin-1-yl]pyrimidin-5-yl]azetidin-1-yl]propyl]oxazolidin-2-one], the IC50 is reported as 138 nM.
For `O=C1N[C@H](CCC(=O)N2CC(c3ccc(C4CCS(=O)(=O)C4)cc3)C2)CO1` (stereo partly drawn) [Example 130, (4R)-4-[3-[3-[4-(1,1-Dioxothiolan-3-yl)phenyl]azetidin-1-yl]-3-oxo-propyl] oxazolidin-2-one], the IC50 was 251 nM.
Molecule `O=C1N[C@H](CCC(=O)N2CC3(CC(NS(=O)(=O)c4cccc(C(F)(F)F)c4)C3)C2)CO1` [Example 154, N-[2-[3-[(4R)-2-Oxooxazolidin-4-yl]propanoyl]-2-azaspiro[3.3]heptan-6-yl]-3-(trifluoromethyl) benzene-sulfonamide] has an IC50 of 95 nM.
Work on `O=C1N[C@H](CCC(=O)N2CC(c3ccc(N(CC4CC4)c4ccccc4)cc3)C2)CO1` [Example 89, (4R)-4-[3-[3-[4-[N-(Cyclopropylmethyl)anilino]phenyl]azetidin-1-yl]-3-oxo-propyl] oxazolidin-2-one] yielded an IC50 of 0.02 nM.
`O=C1N[C@H](CCC(=O)N2CC(c3ccc(-c4nc(C5(C(F)(F)F)CC5)n[nH]4)cc3)C2)CO1` [Example 178, (4R)-4-[3-Oxo-3-[3-[4-[3-[1-(trifluoro-methyl)cyclo-propyl]-1H-1,2,4-triazol-5-yl]phenyl]azetidin-1-yl]propyl]oxazolidin-2-one] showed an IC50 of 181 nM.
`O=C1N[C@H](CCC(=O)N2CC(c3cnc(N4CCC(C(F)(F)F)C4)cn3)C2)CO1` (stereo partly drawn) [Example 105, (4R)-4-[3-Oxo-3-[3-[5-[3-(trifluoro-methyl)pyrrolidin-1-yl]pyrazin-2-yl]azetidin-1-yl]propyl] oxazolidin-2-one] gave an IC50 of 43 nM.
In the case of `O=C1CCC(CCC(=O)N2CC(c3ccc(-c4ccc(F)cc4F)cc3)C2)N1` (single isomer, unassigned; (-)) [Example 9, (−)-5-[3-[3-[4-(2,4-Difluorophenyl)phenyl]azetidin-1-yl]-3-oxo-propyl]pyrrolidin-2-one], the IC50 is reported as 550 nM.
Molecule `O=C1N[C@H](CCC(=O)N2CC(c3cnc(N4CC5(CCCC5)C4)cn3)C2)CO1` [Example 140, (4R)-4-[3-[3-[5-(2-Azaspiro[3.4]octan-2-yl)pyrazin-2-yl]azetidin-1-yl]-3-oxo-propyl]oxazolidin-2-one] has an IC50 of 28 nM.
`O=C1N[C@H](COC(=O)N2CC3(CC(Cc4ccc(F)cc4F)C3)C2)CO1` [Example 57, [(4S)-2-Oxooxazolidin-4-yl]methyl 6-[(2,4-difluorophenyl)methyl]-2-azaspiro[3.3]heptane-2-carboxylate] showed an IC50 of 2 nM.
In the case of `CC1(CCC(=O)N2CC(c3ccc(C4(C(F)(F)F)CC4)cc3)C2)CCC(=O)N1` (single isomer, unassigned) [Example 16, (+)- or (−)-5-Methyl-5-[3-oxo-3-[3-[4-[1-(trifluoromethyl)cyclopropyl]phenyl]azetidin-1-yl]propyl]pyrrolidin-2-one], the IC50 is reported as 213 nM.
